# Test results: BigSolDB 2.1
compound,measurement,setting,value
Nc1cccc(C(=O)O)c1O,solubility (mole fraction),"in n-propanol, 293.2 K",0.000339
same,solubility (mole fraction),"in n-propanol, 298.2 K",0.00046
same,solubility (mole fraction),"in n-propanol, 303.2 K",0.000522
same,solubility (mole fraction),"in n-propanol, 308.2 K",0.00058
same,solubility (mole fraction),"in n-propanol, 313.2 K",0.000681
same,solubility (mole fraction),"in water, 293.2 K",0.00012
same,solubility (mole fraction),"in water, 298.2 K",0.000122
same,solubility (mole fraction),"in water, 303.2 K",0.000139
same,solubility (mole fraction),"in water, 308.2 K",0.000148
same,solubility (mole fraction),"in water, 313.2 K",0.000165
